Results as given in paper PMC6522524 (Nature Communications, 2019).
Several values for one entry are separate records, joined by “and”; a condition that tells them apart may be missing. Identical values can stand only once. Like-named read-outs stand apart in the source and are kept apart here.

What was measured:
in vitro [1] = settings: human, Cell viability(%)
[2] = tested on: HBV (genotype D) in Huh-7-NTCP cells; experiment: In vitro HBV infection model, Huh-7-NTCP cells: secreted HBV DNA
Protocol: (§3) To isolate the secreted HBV DNA, culture media were collected and centrifuged at 15,000 × g to remove debris. The medium was diluted 1:1 with phosphate-buffered saline (PBS), and 1 M NaOH solution was added to a final concentration of 0.1 M. The mixture was incubated at 37 °C for 1 h. Protein was denatured by adding 2 M Tris-HCl (pH 7.5) solution to a final concentration of 0.2 M and incubating the mixture at 98 °C for 5 min. The protein precipitate was removed by centrifugation at 15,000 × g, and the supernatant was subjected to PCR with an HBV DNA primer and probe set (Supplementary Table 1). […] To isolate intracellular HBV DNA, the cells were lysed on ice with lysis buffer (50 mM Tris-HCl, pH 7.5, 1 mM EDTA, 1% NP40) for 10 min. After removing cell debris and nuclei by centrifugation at 15,000 × g, the supernatant was treated with micrococcal nuclease (0.25 U per μL, M0247, New England Biolabs) at 37 °C for 1 h. The micrococcal nuclease was then inactivated by adding EGTA to a final concentration of 10 mM. Thereafter intracellular HBV DNA was extracted with a G-spin^TM total kit (17046, Intron). The isolated intracellular HBV DNA was subjected to PCR with an HBV DNA primer and probe set (Supplementary Table 1). cccDNA was isolated by the Hirt extraction method[54]. […]

[3] = ref https://www.drugbank.ca/; cited from earlier work
[4] = tested on: HBV (pHBV1.2× adr) in transfected HepG2 cells; experiment: microbe, parasite or virus in culture; assay type: cell-based, Hepatitis B virus; settings: Hepatitis B virus, HepG2, 144 h; HBV1.2× adr transfected cells, 6 days; read-out: IC50, HBV DNA secretion
[5] = tested on: HepG2 cells transfected with pHBV1.2×; settings: 0.1–10 μM, 6 days
in vitro [6] = assay type: cell-based, human; settings: human, Cell viability(%)
Protocol: Supplementary Fig. 11. Effect of FBS serum iron level on Huh-7, HepG2, and HepG2.2.15 cell
a Cells were maintained in medium supplemented with 2% FBS or 10% FBS for 1 day and treated with
After 6 days, cytotoxicity was measured. b Cells were treated with
the ± SD. *p < 0.05 by unpaired two-tailed Student’s t-test.

[7] = tested on: HBV (pHBV1.2× adr) in transfected HepG2 cells; experiment: microbe, parasite or virus in culture; assay type: cell-based, Hepatitis B virus; settings: Hepatitis B virus, HepG2, 144 h; HBV1.2× adr transfected cells, 6 days; read-out: IC50, intracellular HBV DNA
[8] = tested on: HBV (genotype D) in PXB mice; settings: mouse, in vivo
in vitro [9] = settings: human, Cell viability(%); remark: listed apart in the source
[10] = tested on: HBsAg in HepG2 cells transfected with pHBV1.2×; experiment: Secreted HBsAg ELISA, HepG2 cells transfected with pHBV1.2×; assay type: cell-based, Hepatitis B virus
Protocol: (§1) Secreted HBsAg (f, i respectively) was quantified by ELISA.
(§2) An HBsAg ELISA kit (KA0286, Abnova) was used to quantify HBsAg protein. Briefly, culture media were incubated in individual wells of the capture plates for 2 h. After washing, horseradish peroxidase-labeled rabbit anti-HBV surface antibody was added, followed by incubation for an additional 2 h. The substrate solution was added for 15–60 min and absorbance at 450 nm was measured.

[11] = tested on: intracellular HBV DNA in HepG2.2.15 and HBV 1.2X adr transfected HepG2 cells; experiment: Southern blot analysis of intracellular HBV DNA; assay type: cell-based, Hepatitis B virus; settings: Fig. 4c
Text: HBV DNA was separated on a 1% agarose gel, blotted onto a nylon membrane (Hybond N + , RPN203B, GE Healthcare), and hybridized with a biotin-labeled full length HBV fragment prepared with the BioPrime™ DNA labeling system (18094011, ThermoFisher).

[12] = molecular target: T1, Cp149 (truncated HBV core protein) (Hepatitis B virus genotype D subtype ayw, UniProt P03146); experiment: biochemical
T1 construct: Cp149 (amino acids 1–149) is a truncated form of the HBV core protein; made in house; host or cells: Escherichia coli
T1 sequence (P03146 1-149): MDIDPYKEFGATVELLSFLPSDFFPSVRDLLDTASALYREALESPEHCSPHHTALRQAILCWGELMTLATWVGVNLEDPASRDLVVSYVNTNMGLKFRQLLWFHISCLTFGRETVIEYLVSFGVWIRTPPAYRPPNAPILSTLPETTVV

[13] = molecular target: T1, Cp149 (truncated HBV core protein); experiment: Electron microscopy of HBV capsid assembly in vitro; assay type: biochemical
Protocol: The particles were negatively stained with 2% uranyl acetate. Scale bars = 200 nm and 100 nm. TEM magnifications, ×49,000 and ×75,000.
Five microliters of the solution containing the assembled HBV core particles was negatively stained by incubation on a carbon-coated grid for 1 min, followed by washing with water and staining with 2% uranyl acetate for 1 min. The grids were examined with a Tecnai G2 F30 S-TWIN transmission electron microscope.

[14] = tested on: HBV rcDNA in HepG2-NTCP cells; experiment: In vitro HBV infection model, HepG2-NTCP cells: intracellular HBV rcDNA
Protocol: as §3

[15] = tested on: HBV cccDNA in HepG2-NTCP cells; experiment: In vitro HBV infection model, HepG2-NTCP cells: intracellular cccDNA
Protocol: HepG2 and Huh-7 cells permanently expressing NTCP were generated by infecting them with an NTCP-encoding recombinant retrovirus and isolating GFP-expressing cells.
The isolated intracellular HBV DNA was subjected to PCR with an HBV DNA primer and probe set (Supplementary Table 1). cccDNA was isolated by the Hirt extraction method[54]. Briefly, the cells were lysed in SDS lysis buffer (50 mM Tris-HCl, pH 8.0, 10 mM EDTA, 150 mM NaCl, 1% SDS), and the lysates were mixed with KCl to a final concentration of 0.5 M. After incubation at 4 °C for 30 min, each lysate was centrifuged and the supernatant was extracted three times with phenol and once with chloroform. The DNA was then recovered by ethanol precipitation, and treated with T5 nuclease (10 U per μg for 0.5 h, M0363, New England Biolabs), and the enzyme was subsequently heat-denatured at 70 °C. The isolated cccDNA was subjected to PCR with a cccDNA primer and probe set (Supplementary Table 1).
HepG2-NTCP and Huh-7-NTCP cells were cultured in 12-well plates with the indicated compound(s) for 4 h, after which the cells were infected with HBV particles (10^7 viral genome equivalent per mL, genotype D) and treated with the indicated compound(s) for another 16 h. […]
Quantitative PCR with an HBV DNA primer and probe set was used to measure intracellular
cccDNA. The data are expressed as means ± SDs. […]

patients = settings: cited from earlier work
[16] = tested on: HBsAg in HepG2.2.15 cells; experiment: Secreted HBsAg ELISA, HepG2.2.15 cells; assay type: cell-based, Hepatitis B virus
Protocol: as §1, §2

`Cc1cc(C2CCCCC2)n(O)c(=O)c1` [Ciclopirox, 6-cyclohexyl-1-hydroxy-4-methyl-2(1 H)-pyridone] gave a viability at 0.1 µM (in vitro [1]; AVERAGE) of 98.8%, a viability at 0.2 µM (in vitro [1]; AVERAGE) of 102% and a viability at 0.5 µM (in vitro [1]; AVERAGE) of 97.7%. It also gave a viability at 1 µM (in vitro [1]; AVERAGE) of 98.7%, a viability at 2 µM (in vitro [1]; AVERAGE) of 99.1% and a viability at 0.1 µM (in vitro [1]; individual samples) of 98.8%. For the same compound, the viability at 0.2 µM (in vitro [1]; individual samples) was 102%, the viability at 0.5 µM (in vitro [1]; individual samples) was 97.6% and the viability at 1 µM (in vitro [1]; individual samples) was 98.6%. The viability at 2 µM (in vitro [1]; individual samples) was 99%, the “secretion of HBV DNA” value [2] was “dropped markedly” and the “pKa value (acidic)” value [3] was 6.84. For the same compound, the IC50 [4] was 750 ± 150 nM, the “cytotoxicity” value [5] was “no significant cytotoxicity” and the viability at 0.1 µM (in vitro [6]; AVERAGE) was 100%. It also gave a viability at 0.2 µM (in vitro [6]; AVERAGE) of 100%, a viability at 0.5 µM (in vitro [6]; AVERAGE) of 99.6% and a viability at 1 µM (in vitro [6]; AVERAGE) of 99.1%. It also gave a viability at 2 µM (in vitro [6]; AVERAGE) of 97.4%, a viability at 5 µM (in vitro [6]; AVERAGE) of 95.2% and a viability at 10 µM (in vitro [6]; AVERAGE) of 93.6%. The viability at 0.1 µM (in vitro [6]; individual samples) was 99.9%, the viability at 0.2 µM (in vitro [6]; individual samples) was 99.6% and the viability at 0.5 µM (in vitro [6]; individual samples) was 99.4%. It also gave a viability at 1 µM (in vitro [6]; individual samples) of 98.9%, a viability at 2 µM (in vitro [6]; individual samples) of 97% and a viability at 5 µM (in vitro [6]; individual samples) of 93%. The viability at 10 µM (in vitro [6]; individual samples) was 93.5%, the IC50 [7] was 800 ± 180 nM and the “Serum HBV DNA, AVERAGE” value [8] was 6.24 log copies/mL. For the same compound, the “Serum HBV DNA, individual samples” value [8] was 6.248 log copies/mL and 5.238 log copies/mL and 7.238 log copies/mL, the “cccDNA, AVERAGE” value [8] was 0.2214 log copies/cell and the “cccDNA, individual samples” value [8] was 0.22 log copies/cell and 0.29 log copies/cell and 0.16 log copies/cell. For the same compound, the “HBV core protein levels in the liver” value ([8]; po) was “significantly reduced HBV core protein levels in the liver”, the HBeAg levels ([8]; po) was “significantly decreased HBeAg levels” and the “Serum ALT levels” value ([8]; po) was “decreased”. For the same compound, the “intrahepatic cccDNA” value ([8]; po) was “significantly reduced the amount of intrahepatic cccDNA”, the “serum HBV DNA levels” value ([8]; po) was “lowered serum HBV DNA levels significantly” and the “serum HBV DNA levels, combined with TDF” value ([8]; po) was “these effects were enhanced when it was combined with TDF”. For the same compound, the viability at 0.1 µM (in vitro [9]; AVERAGE) was 99.9%, the viability at 0.2 µM (in vitro [9]; AVERAGE) was 99.2% and the viability at 0.5 µM (in vitro [9]; AVERAGE) was 99.4%. The viability at 1 µM (in vitro [9]; AVERAGE) was 99.9%, the viability at 2 µM (in vitro [9]; AVERAGE) was 99.4% and the viability at 5 µM (in vitro [9]; AVERAGE) was 99.2%. For the same compound, the viability at 10 µM (in vitro [9]; AVERAGE) was 99.8%, the viability at 0.1 µM (in vitro [9]; individual samples) was 98.9% and the viability at 0.2 µM (in vitro [9]; individual samples) was 95.7%. It also gave a viability at 0.5 µM (in vitro [9]; individual samples) of 98.9%, a viability at 1 µM (in vitro [9]; individual samples) of 99.9% and a viability at 2 µM (in vitro [9]; individual samples) of 99.6%. For the same compound, the viability at 5 µM (in vitro [9]; individual samples) was 97.6%, the viability at 10 µM (in vitro [9]; individual samples) was 99.9% and the “HBsAg production” value [10] was “no effect”. The “intracellular HBV DNA levels (Southern blot)” value [11] was “reduced intracellular HBV DNA levels in a dose-dependent manner”, the IC50 [12] was 445 ± 17 nM and the “HBV capsid morphology (EM)” value [13] was “HBV capsid morphology was altered”. The “intracellular relaxed circular DNA levels” value [14] was “dropped markedly”, the “cccDNA levels” value [15] was “dropped markedly” and the Dose-limiting gastrointestinal toxicities (patients; 80 mg per m^2 four times daily, oral) was “Dose-limiting gastrointestinal toxicities were observed”. For the same compound, the “anti-apoptotic gene expression in peripheral blood cells” value (patients; once daily >10 mg per m^2, oral) was “suppressed anti-apoptotic gene expression in peripheral blood cells” and the “HBsAg production” value [16] was “no effect”.
